Experimental findings from ChEMBL document CHEMBL1201862, “PubChem BioAssay data set” (2004) are described below.

Common to all, as to assay: growth of human tumour cells (NCI), 48 h
The subject of assay [1] is BT-549.
The test system of assay [2] is KM-20L2.
The subject of assay [3] is LXFL 529.
For assay [4], the system named is DMS-114.
The test system of assay [5] is DLD-1.
Assay [6] deals with M19-MEL.
In assay [7] the test system is HOP-18.
Assay [8] has as its system XF498.

The structures appear in SMILES notation.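 Following 48 hours of exposure in 96-well plates, responses at five concentrations were used to interpolate endpoints linearly. Here, GI50 denotes the concentration required for 50% inhibition of growth.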 The source made the active and inactive calls. No stated cut-off is given here; in the data, active = GI50 up to about 1.1 µM and inactive = higher. Some results are limits rather than exact numbers.

As to `C[Si](C)(c1ccc(C(=O)O)cc1)c1ccc(C(=O)O)cc1`, in assay [1], the GI50 is > 100 µM (inactive).

Take `O=C(O)c1cccc2cccc(-c3cccc4cccc(C(=O)O)c34)c12`: in assay [1], the GI50 was > 100 µM (inactive).

Consider `Clc1cccc(Cl)c1C(Nc1nncs1)Nc1nncs1`, for which the GI50 in assay [1] was 73.3 µM (inactive).

With `COc1ccc2cc(C(=O)NCCCNC(=O)c3ccc4cc(OC)ccc4c3)ccc2c1`, the GI50 in assay [1] is > 64.7 µM (inactive).

Consider `C=CC(Br)(CBr)CCC(Br)C(C)C` (stereo not given), for which the GI50 in assay [1] was 3.14 µM (inactive).

For the molecule `COc1cccc(C=O)c1[O-].COc1cccc(C=O)c1[O-].[Zn+2]`, the GI50 in assay [2] is > 100 µM (inactive); in assay [3] it was 45.3 µM (inactive); in assay [4], 51.6 µM (inactive); in assay [5], 47 µM (inactive); in assay [6], 31.8 µM (inactive); in assay [7] it was 40.9 µM (inactive).

Consider `C[C@]12CCC(=O)C=C1C[C@@H](O)[C@@H]1[C@@H]2CC[C@@]2(C)[C@H]1CC[C@]2(C)O`, for which the GI50 in assay [1] is > 100 µM (inactive).

As for `CC1CCC2C(C)(C)CC3(C)CCC1C23O` (stereo not given), the GI50 in assay [1] was 18.1 µM (inactive).

As for `CCCCCCc1cc2cc(-c3cn4c(n3)sc3ccccc34)c(=O)oc2cc1O`, in assay [1], the GI50 was > 100 µM (inactive).

With `COc1ccccc1C1c2cc3c(cc2OC(O)(CO)C1C(=O)O)OCO3.COc1ccccc1C1c2cc3c(cc2OC2(O)COC(=O)C12)OCO3` (stereo not given), the GI50 in assay [2], in assay [3], in assay [4], in assay [5], in assay [6] and in assay [7] was > 100 µM (inactive) each time.

As to `O=c1cc(-c2ccccc2)[nH]c2c(F)ccc(F)c12`, the GI50 in assay [3] was 68.5 µM (inactive); in assay [4], 28.7 µM (inactive); in assay [5], > 100 µM (inactive); in assay [6] it was 41.4 µM (inactive); in assay [7], > 100 µM (inactive).

Consider `O=C1/C(=N\n2c(S)nnc2-c2ccncc2)c2cc(Cl)ccc2N1CN1CCCCC1`, for which the GI50 in assay [1] was 25.9 µM (inactive).

On to `CCOC1C(Br)Cn2c(=O)c3cc4ccccc4cc3c(=O)n2C1C` (stereo not given), for which the GI50 is 68.9 µM (inactive) in assay [2]; 35.8 µM (inactive) in assay [3]; 44.8 µM (inactive) in assay [4]; 54.3 µM (inactive) in assay [5]; 31 µM (inactive) in assay [8]; 55.6 µM (inactive) in assay [6].

In the case of `CSc1nc2ccccc2c(=O)n1/N=C1\C(=O)N(CN2CCCCC2)c2ccc(Cl)cc21`, the GI50 in assay [1] is 15 µM (inactive).

As for `CC(=O)Oc1ccc2c(c1)O/C(=C\c1ccc(N(C)C)cc1)C2=O`, the GI50 in assay [1] is 68.4 µM (inactive).

As to `O=C(Cc1ccc(Cl)c(Cl)c1)NCCCN1CCN(CCCN2CCCCC2)CC1`, the GI50 in assay [1] is 21.9 µM (inactive).

As to `OCC(S)CS.[Bi]` (stereo not given), the GI50 in assay [1] was 9.79 µM (inactive).

For `NC1=NNC(=O)c2nnc3c(C(=O)O)cnn3c2S1`, the GI50 in assay [2], in assay [3], in assay [4], in assay [5], in assay [6] and in assay [7] was > 100 µM (inactive) in each case.

`Cc1cc2c(cc1Cl)SSc1cc(Cl)c(C)cc1S(=O)(=O)Nc1nc(N)nn1C(O)n1nc(N)nc1NS2(=O)=O`: the GI50 in assay [1] is > 10 µM (inactive).

Consider `COc1ccc(NC(=O)CC(=O)N2N=C(N(CCC#N)c3cccc(C)c3)CC2c2ccccc2)cc1` (stereo not given), for which the GI50 in assay [2], in assay [3], in assay [5], in assay [6] and in assay [7] was > 100 µM (inactive) in each case.

Consider `CC12c3c4ccc(C=O)c3Oc3ccc(C=O)c(c31)Oc1ccc(C=O)c(c12)O4`, for which the GI50 in assay [1] is > 25 µM (inactive).

Consider `CC(=O)Nc1ccc(/C=C2\N=C(c3ccccc3)OC2=O)cc1`, for which the GI50 was > 100 µM (inactive) in assay [2]; > 100 µM (inactive) in assay [3]; 1 µM (active) in assay [4]; > 100 µM (inactive) in assay [5]; > 100 µM (inactive) in assay [7].

Turning to `CCOC(=O)[C@H]1CSC[C@@H](C(=O)OC)N1`, the GI50 in assay [3], in assay [4], in assay [5] and in assay [6] was > 100 µM (inactive) each time.

For `CN1C2CCC1CC(CCOC(c1ccc(F)cc1)c1ccc(F)cc1)C2` (stereo not given), the GI50 in assay [1] is 16.9 µM (inactive).

In the case of `Cc1ccc(-c2c(-c3ccccc3)[nH]c(C)c2C(=O)ONC(=O)c2ccccc2)cc1`, in assay [1], the GI50 was 3.52 µM (inactive).

Regarding `O=C1N=C2SC(=S)N=C(S)N2NC12c1ccccc1-c1ccccc12`, the GI50 in assay [1] was > 10 µM (inactive).

In the case of `COc1ccc(C(=O)C(c2ccc(OC)cc2)C2(O)C(=O)Nc3ccc([N+](=O)[O-])cc32)cc1` (stereo not given), the GI50 is > 100 µM (inactive) in assay [2]; > 100 µM (inactive) in assay [3]; 48.8 µM (inactive) in assay [4]; > 100 µM (inactive) in assay [5]; > 100 µM (inactive) in assay [6].

With `CN(C)c1ccc(/C=C2\C[C@H]3[C@@H]4CCC5=CC(=O)CC[C@]5(C)[C@H]4CC[C@]3(C)C2=O)cc1`, in assay [1], the GI50 is 51.2 µM (inactive).

In the case of `COC1=C2C[C@](OC)(C#CC=CC#CC2O)CC1(C)C` (stereo not given in full), the GI50 in assay [1] was > 100 µM (inactive).

For the molecule `CC1=C(C(=O)N(C)c2ccc(Cl)c(C(=O)OC(C)C)c2)SCCO1`, the GI50 in assay [1] was 40.9 µM (inactive).

Take `CCn1c(SCC(=O)NNC(=S)Nc2ccc([N+](=O)[O-])cc2)nc2ccccc2c1=O`: the GI50 in assay [1] is 53.8 µM (inactive).

On to `COc1ccc(/C=N/NS(=O)(=O)c2ccc(/C=C3\NC(=O)NC3=O)cc2)cc1`, for which, in assay [1], the GI50 was > 100 µM (inactive).

On to `CCOC(=O)n1cncc1CC(NC(=O)Cc1c(C(=O)C=C(C)C)[nH]c2ccccc12)C(=O)OC` (stereo not given), for which, in assay [1], the GI50 was 20 µM (inactive).

Regarding `Cc1ccc(NC(=O)/C(Cc2cc(=O)oc3cc(O)ccc23)=N\NC(=O)C[N+](C)(C)C)cc1C`, the GI50 in assay [1] was > 100 µM (inactive).

Regarding `O=C(CP(=O)(O)O)c1cccs1`, the GI50 in assay [2], in assay [3], in assay [4], in assay [5], in assay [6] and in assay [7] was > 100 µM (inactive) in each case.

Take `CC(=O)OCC(OC(C)=O)C(OC(C)=O)C(OC(C)=O)C(=O)CNn1c(-c2ccccc2)nc2ccc(Br)cc2c1=O` (stereo not given): the GI50 in assay [2] was > 100 µM (inactive); in assay [3], > 100 µM (inactive); in assay [4], > 100 µM (inactive); in assay [8], 21.2 µM (inactive); in assay [6], > 100 µM (inactive).

For the molecule `O=[N+]([O-])C(C(Cl)=C(Cl)Cl)=C(N(Cc1ccccc1)Cc1ccccc1)N(Cc1ccccc1)Cc1ccccc1`, in assay [1], the GI50 is > 100 µM (inactive).

`COc1cc(C2c3cc4c(cc3OC(NNS(=O)(=O)c3ccc(C)cc3)C2C)OCO4)cc(OC)c1OC` (stereo not given): in assay [1], the GI50 was 3.32 µM (inactive).

In the case of `CC(=O)N(N=O)c1ccc(N(N=O)C(C)=O)cc1`, the GI50 in assay [2], in assay [3], in assay [4], in assay [5] and in assay [6] was > 100 µM (inactive) in each case.

For `O=C1CCCc2c(O)ccc(O)c21`, the GI50 in assay [2] was > 100 µM (inactive); in assay [3], 44 µM (inactive); in assay [4] it was 19.9 µM (inactive); in assay [5], > 100 µM (inactive); in assay [6], 93.5 µM (inactive); in assay [7], > 100 µM (inactive).

For `C=CCCCCNC(=O)C[C@@H]1C2=C(CC[C@H]1O[Si](C)(C)C(C)(C)C)N1C(=O)CCC/C=C\C1C2` (stereo not given in full), the GI50 in assay [1] was 16.6 µM (inactive).

Take `O=C(Nc1ccc(Cl)cc1C(F)(F)F)C(=O)Nn1c(S)nc2ccccc2c1=O`: the GI50 in assay [1] was > 100 µM (inactive).

Take `CCOC(=O)CC1C(O)C(=O)N(C)C1c1ccccc1` (stereo not given): the GI50 in assay [1] was > 100 µM (inactive).

Turning to `COc1ccc(C(=O)/C=C/c2ccc(OCC(=N)N)cc2)cc1`, the GI50 in assay [1] is 17.9 µM (inactive).

With `COc1ccccc1CC1(O)OC(=O)c2ccccc21` (stereo not given), in assay [1], the GI50 is > 100 µM (inactive).

As to `O=C(NN1C(=O)C=CC1=O)c1ccccc1Nc1ccccc1C(=O)NN1C(=O)C=CC1=O`, the GI50 in assay [1] is > 100 µM (inactive).

In the case of `CCCCNC(=S)c1ccc(OC(=O)Nc2ccc(Cl)cc2)cc1`, the GI50 in assay [1] was 20.6 µM (inactive).

Regarding `CCOC(=O)N(NC(=O)NC(C)C)c1ccccc1`, in assay [1], the GI50 was > 100 µM (inactive).

Regarding `CC(=O)OCC1OC(N2C(S)=C(C#N)C(c3ccco3)C(C(C)=O)=C2c2ccccc2)C(OC(C)=O)C(OC(C)=O)C1OC(C)=O` (stereo not given), the GI50 in assay [1] was > 100 µM (inactive).

`CNC(=O)OCC1=C(COC(=O)NC)C(C)N(c2ccc(OC)cc2)C1` (stereo not given): the GI50 in assay [1] was > 100 µM (inactive).

As for `O=C1CCc2nc3ncccc3cc2C1`, the GI50 in assay [1] was > 100 µM (inactive).

Take `COc1cc2cc3c4c(cc(OC)c(OC)c4c2cc1OC)CCN3C(=O)OCCN1CCNCC1`: the GI50 in assay [2] was 11.8 µM (inactive); in assay [3], 15.1 µM (inactive); in assay [5] it was 15.2 µM (inactive); in assay [8] it was 15.3 µM (inactive); in assay [6], 6.95 µM (inactive); in assay [7] it was 17 µM (inactive).

For `c1ccc(CN2CCC(=NN3CCCCC3)CC2)cc1`, the GI50 in assay [1] was 43.5 µM (inactive).

`C#CCCCOc1ncccn1`: the GI50 in assay [1] is > 100 µM (inactive).

Turning to `Cc1ccc(C(=O)Nc2ccc(CP(=O)(O)O)cc2CP(=O)(O)O)cc1NC(=O)c1cccc(NC(=O)Nc2cccc(C(=O)Nc3cc(C(=O)Nc4ccc(CP(=O)(O)O)cc4CP(=O)(O)O)ccc3C)c2)c1`, the GI50 in assay [1] was > 100 µM (inactive).

As for `O=C1CCCCC/C1=C\c1cccc([N+](=O)[O-])c1`, the GI50 in assay [1] was 24.5 µM (inactive).

Regarding `CN(N=O)C(=O)ON1C(=O)CCC1=O`, the GI50 in assay [2], in assay [3], in assay [4], in assay [5], in assay [6] and in assay [7] was > 100 µM (inactive) each time.

As to `C[C@H]1O[C@@H](O[C@H]2[C@@H](O)C[C@H](O[C@H]3[C@@H](O)C[C@H](O[C@H]4CC[C@@]5(C)[C@H](CC[C@@H]6[C@@H]5CC[C@]5(C)[C@@H](C7=CC(=O)OC7)[C@@H](O)C[C@]65O)C4)O[C@@H]3C)O[C@@H]2C)C[C@H](O)[C@@H]1O` [GITOXIN], the GI50 in assay [1] was 0.116 µM (active).
